Experiment: Human HepG2 cell viability assay in 384 well format
Assay type: toxicity, cell-based
Set-up: dose 125 nL, time 70.5 hour; cytotoxicity at 70.5 h: concentration not given beside the values
Conditions: HepG2 cells, read-out: Inhibition

Row | SMILES | cytotoxicity at 70.5 h [%]
1 | COc1cccc(CC2CCCN2Cc2nccn2C)c1 (stereo not drawn) | -5
2 | CC(NC(=O)N1CCCN(CC(F)F)CC1)c1ccco1 (stereo not drawn) | -8.42
3 | CCOCCC(=O)N1CCCC(c2cc(C(F)(F)F)[nH]n2)C1 (stereo not drawn) | -10.6
4 | CC(CNC(=O)c1ccco1)N1CCc2sccc2C1 (stereo not drawn) | -4.45
5 | Cc1nn(C)c2ncc(C(=O)N3CCNC(=O)C3)cc12 | -3.66
6 | CC(=O)N(C)CC(=O)NC(C)c1ccc(OCCC(C)C)cc1 (stereo not drawn) | -3.81
7 | Cc1nn(C)c2ncc(NC(=O)N3CCNC(=O)C3)cc12 | -6.74
8 | CC(C)CCOc1ccc(C(C)NC(=O)CSCC(N)=O)cc1 (stereo not drawn) | -8.07
9 | CC(C)OCCC(=O)NCC(c1c(F)cccc1F)N(C)C (stereo not drawn) | 22.3
10 | CC(C)CC(=O)NCC(O)c1c(F)cccc1F (stereo not drawn) | -7.25
11 | CNC(=O)CCN(C)CC1(c2ccc(Br)cc2)CC1 | -0.48
12 | COCC(O)CNC(=O)Nc1ccc(Cl)cc1-n1cccc1 (stereo not drawn) | -7.23
13 | Cn1cc(CCC(=O)NC(c2ccc(F)cc2)C(F)(F)F)cn1 (stereo not drawn) | -8.97
14 | CCc1cnc(COc2ccc(OC3CCCCNC3=O)cc2)o1 (stereo not drawn) | -4.27
15 | CNC(=O)CN(C)CC1(c2ccc(Br)cc2)CC1 | 0.137
16 | CN1CCC(NC(=O)Nc2cnn(-c3ccccc3Cl)c2)CC1 | -5.23
17 | Cc1ccc(CNC(=O)COc2ccc3c(c2)OCC3O)cc1 (stereo not drawn) | -7.79
18 | COCCNc1nnc(S(=O)(=O)CCC(C)(C)C#N)s1 | -5.9
19 | Cc1ccc(C(=O)N2CCOCC2C(N)=O)c(F)c1 (stereo not drawn) | -8.13
20 | O=C(CCn1cnc2ccccc21)N1CCN2CCCCC2C1 (stereo not drawn) | 27.2
21 | Cn1cc(S(=O)(=O)NCC(C)(O)c2ccsc2)cn1 (stereo not drawn) | 1.13
22 | NC(=O)CSCCC(=O)NCC1CC1 | 3.32
23 | CC(C)S(=O)(=O)C(C)C(=O)NCc1ccccc1OCc1ccccc1 (stereo not drawn) | -1.68
24 | CC(C)S(=O)(=O)C(C)C(=O)NCc1ccccc1COc1ccccc1 (stereo not drawn) | -11

Row | SMILES | cytotoxicity at 70.5 h [%]
25 | O=C1CCN(C(=O)CCc2ccc(Cl)cc2Cl)CCN1 | -6.13
26 | CC(=O)NCCNC(=O)NCC1Cc2ccccc2O1 (stereo not drawn) | -4.29
27 | c1cc2c(cc1CN1CCN(Cc3noc(C4CC4)n3)CC1)OCO2 | -2.86
28 | O=c1n(CCNCc2ccc(-c3ccccc3)cc2)nc2ccccn12 | -8.68
29 | O=C(NCC1CC(=O)N(CCc2ccccc2)C1)c1c(F)cccc1F (stereo not drawn) | 3.42
30 | Cn1cccc1C(=O)OCCNC(=O)c1ccccc1 | -10.7
31 | O=C(NCC1CC(=O)N(CCc2ccccc2)C1)c1ccon1 (stereo not drawn) | -3.55
32 | Cc1ccc(NC2CCN(C(=O)CCCc3ccccn3)CC2)cc1 | -8.59
33 | Cc1cc(CN(C)C(=O)NCc2ccnc(SC(C)(C)C)c2)no1 | -9.52
34 | CC(C)c1noc(CCC(=O)N2CCCC(n3ccnc3)C2)n1 (stereo not drawn) | -5.4
35 | Cc1nnc(C(C)Nc2cccc(COCCOC(C)C)c2)o1 (stereo not drawn) | -1.57
36 | CC(NC(=O)N1CCc2sccc2C1)c1nncn1C (stereo not drawn) | -5.43
37 | O=C(c1ccc(-n2ccnc2)cc1)N1CCCC1 | 34.6
38 | CC(NC(=O)N1CCc2ccccc2C1)c1nncn1C (stereo not drawn) | -13.5
39 | O=C(Nc1cccnc1-n1cncn1)C1CCC1 | -22.6
40 | Cc1ncc(C(=O)NCCNc2ncnc3sccc23)s1 | -2.99
41 | CN(C)c1ccc(C(=O)N2CCCC2c2ccc(Cl)cc2)nn1 (stereo not drawn) | -11.3
42 | CCOCC(=O)Nc1ccc(-n2ccc(C(N)=O)n2)cc1 | -5.89
43 | Cc1nnc(C(C)Nc2cccc(COCC(F)(F)C(F)F)c2)o1 (stereo not drawn) | 24.9
44 | O=C(c1ccc(O)nc1)N1CCc2ccc(O)cc2C1 | -13
45 | COc1ccc(-c2n[nH]cc2CNC2CCN(C3CC3)CC2)cc1 | -2.67
46 | CC(C)C(N)CNS(=O)(=O)Cc1cccc2cccnc12 (stereo not drawn) | -7.49
47 | NC(CNS(=O)(=O)Cc1cccc2cccnc12)c1ccccc1 (stereo not drawn) | 28.4
48 | NC(=O)C(c1ccc(F)cc1)N1CCN(CCO)CC1 (stereo not drawn) | -6.75
